We go through 37 compounds from patent publication US20260248926A1, “BIFUNCTIONAL COMPOUND AND PHARMACEUTICAL COMPOSITION COMPRISING THE BIFUNCTIONAL COMPOUND, AND METHOD FOR TREATING ANDROGEN RECEPTOR RELATED DISEASE BY USING THE SAME” (ANHORN MEDICINES CO., LTD., priority 2022, published 2026).

Read-outs that look alike come from different tables or passages of the source.

In this assay the target is T1, androgen receptor (Homo sapiens, UniProt P10275, T878A).
T1 construct: Several compounds were selected and serial diluted (10×) with RPMI medium for treating LNCaP.FGC cells; host or cells: LNCaP.FGC
The assay is described as follows: Androgen receptor degradation assay using Western blot analysis in LNCaP.FGC cells. In kind it is cell-based. The method, then: The internal loading control GAPDH was detected using a mouse monoclonal antibody (1:5000) (GTX627408, GeneTex International Corp., HsinChu City, Taiwan R.O.C.) and a goat anti-mouse HRP-conjugated secondary antibody (1:5000 dilution) (C04001, Croyez Bioscience Co., Ltd., Taipei City, Taiwan R.O.C.).
Several compounds were selected and serial diluted (10×) with RPMI medium for treating LNCaP.FGC cells. A calibration curve was determined by the serial diluted samples for each compound, and the concentration needed for 50% AR degradation (AR DC50) for each compound was calculated.

[1] abbreviates: read-out: AR DC50, concentration needed for 50% AR degradation, 24 hr treatment.
The mark [2] stands for this setting: concentration needed for 50% AR degradation, 24 hr treatment, read-out: AR DC50.

T1 sequence (P10275 whole entry T878A): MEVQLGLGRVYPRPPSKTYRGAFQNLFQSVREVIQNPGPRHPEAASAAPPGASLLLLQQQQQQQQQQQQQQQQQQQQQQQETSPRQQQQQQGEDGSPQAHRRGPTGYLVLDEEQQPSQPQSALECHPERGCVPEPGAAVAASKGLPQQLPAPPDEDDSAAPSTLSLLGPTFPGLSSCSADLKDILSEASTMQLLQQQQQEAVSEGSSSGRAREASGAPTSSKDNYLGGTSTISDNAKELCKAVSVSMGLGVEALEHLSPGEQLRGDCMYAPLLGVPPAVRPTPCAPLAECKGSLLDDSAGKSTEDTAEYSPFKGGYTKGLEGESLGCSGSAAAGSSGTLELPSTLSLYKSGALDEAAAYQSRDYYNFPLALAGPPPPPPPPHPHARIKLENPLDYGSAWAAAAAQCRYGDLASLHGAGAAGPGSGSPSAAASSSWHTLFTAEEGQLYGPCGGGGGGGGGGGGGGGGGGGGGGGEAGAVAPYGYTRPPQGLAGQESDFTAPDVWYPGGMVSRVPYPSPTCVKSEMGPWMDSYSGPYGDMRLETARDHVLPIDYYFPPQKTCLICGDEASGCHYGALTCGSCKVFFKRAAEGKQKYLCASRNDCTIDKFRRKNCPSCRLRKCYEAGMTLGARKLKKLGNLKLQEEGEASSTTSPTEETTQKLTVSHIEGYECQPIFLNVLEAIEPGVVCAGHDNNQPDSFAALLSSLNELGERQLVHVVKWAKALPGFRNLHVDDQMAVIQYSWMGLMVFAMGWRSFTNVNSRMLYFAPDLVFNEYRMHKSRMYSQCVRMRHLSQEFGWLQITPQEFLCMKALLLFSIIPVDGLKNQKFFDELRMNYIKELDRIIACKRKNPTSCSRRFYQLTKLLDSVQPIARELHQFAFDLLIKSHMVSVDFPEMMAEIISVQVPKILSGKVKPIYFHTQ
T1 sequence (Q96SW2 whole entry partner): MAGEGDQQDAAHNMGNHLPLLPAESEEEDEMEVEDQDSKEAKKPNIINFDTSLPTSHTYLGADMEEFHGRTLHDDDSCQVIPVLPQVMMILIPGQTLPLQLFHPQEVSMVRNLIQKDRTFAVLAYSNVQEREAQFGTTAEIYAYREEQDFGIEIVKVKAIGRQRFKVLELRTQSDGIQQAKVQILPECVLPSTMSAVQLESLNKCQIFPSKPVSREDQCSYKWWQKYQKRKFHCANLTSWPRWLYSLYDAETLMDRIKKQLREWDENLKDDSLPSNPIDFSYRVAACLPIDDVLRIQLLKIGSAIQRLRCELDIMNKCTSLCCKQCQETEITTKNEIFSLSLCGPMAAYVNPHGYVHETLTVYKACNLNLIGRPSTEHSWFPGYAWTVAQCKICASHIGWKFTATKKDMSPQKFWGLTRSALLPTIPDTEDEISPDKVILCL

As to `CCn1c2c(c3ccc(N4CCN(CC5CN(c6ccc(C(=O)N[C@H]7CC[C@H](Oc8ccc(C#N)c(Cl)c8)CC7)nn6)C5)CC4)cc31)C(=O)N(C1CCC(=O)NC1=O)C2=O` (stereo partly shown) [Compound 3], the DC50 under setting [1] is below 10 nM.
For `Cn1c2c(c3ccc(N4CCN(CC5CCN(c6ccc(C(=O)N[C@H]7CC[C@@H](Oc8ccc(C#N)c(Cl)c8)CC7)nn6)CC5)CC4)cc31)C(=O)N(C1CCC(=O)NC1=O)C2=O` (stereo partly shown) [Compound 22], under setting [2], the DC50 is 10 to 25 nM.
For `Cn1c2c(c3ccc(C4CCN(CC5CCN(c6ccc(C(=O)N[C@H]7CC[C@H](Oc8ccc(C#N)c(Cl)c8)CC7)nn6)CC5)CC4)cc31)C(=O)N(C1CCC(=O)NC1=O)C2=O` (stereo partly shown) [Compound 29], under setting [2], the DC50 was in the range of 10 to 25 nM.
Take `Cn1c2c(c3ccc(N4CCN(CC5CCN(c6ccc(C(=O)N[C@H]7CC[C@H](Oc8ccc(C#N)c(Cl)c8)CC7)nn6)CC5)CC4)cc31)C(=O)N(C1CCC(=O)NC1=O)C2=O` (stereo partly shown) [Compound 21]: the DC50 under setting [2] was below 10 nM.
As for `CCn1c2c(c3ccc(C4CCN(CC5CCN(c6ccc(C(=O)N[C@H]7CC[C@H](Oc8ccc(C#N)c(Cl)c8)CC7)nn6)C5)CC4)cc31)C(=O)N(C1CCC(=O)NC1=O)C2=O` (stereo partly shown) [Compound 18], the DC50 under setting [1] lay in the range of 10 to 25 nM.
For `CCn1c2c(c3ccc(C4CCN(CC5CCN(c6ccc(C(=O)N[C@H]7CC[C@H](Oc8ccc(C#N)c(Cl)c8)CC7)nn6)CC5)CC4)cc31)C(=O)N(C1CCC(=O)NC1=O)C2=O` (stereo partly shown) [Compound 11], the DC50 under setting [1] was below 10 nM.
Turning to `CCn1c2c(c3ccc(N4CCN(CC5CCN(c6ccc(C(=O)N[C@H]7CC[C@H](Oc8ccc(C#N)c(Cl)c8)CC7)nn6)CC5)CC4)cc31)C(=O)N(C1CCC(=O)NC1=O)C2=O` (stereo partly shown) [Compound 23], the DC50 under setting [1] is 10 to 25 nM.
As to `CCn1c2c(c3ccc(N4CCN(CC5CCN(c6ccc(C(=O)N[C@H]7CC[C@@H](Oc8ccc(C#N)c(Cl)c8)CC7)nn6)CC5)CC4)cc31)C(=O)N(C1CCC(=O)NC1=O)C2=O` (stereo partly shown) [Compound 33], the DC50 under setting [1] is below 10 nM.
Turning to `CCn1c2c(c3ccc(N4CCN(CC5CCN(c6ccc(C(=O)N[C@H]7C(C)(C)[C@H](Oc8ccc(C#N)c(Cl)c8)C7(C)C)nn6)CC5)CC4)cc31)C(=O)N(C1CCC(=O)NC1=O)C2=O` (stereo partly shown) [Compound 8], the DC50 under setting [1] was 25 to 100 nM.
For the compound `CCn1c2c(c3ccc(N4CCN(CC5CCN(c6ccc(C(=O)N[C@H]7CC[C@H](Oc8ccc(C#N)c(Cl)c8)CC7)nn6)CC5)CC4)cc31)C(=O)N([C@H]1CCC(=O)NC1=O)C2=O` [Compound 36], the DC50 under setting [1] lay within 10 to 25 nM.
For the compound `Cn1c2c(c3ccc(N4CCN(CC5CCN(c6ccc(C(=O)N[C@H]7C(C)(C)[C@H](Oc8ccc(C#N)c(Cl)c8)C7(C)C)cn6)CC5)CC4)cc31)C(=O)N(C1CCC(=O)NC1=O)C2=O` (stereo partly shown) [Compound 27], under setting [2], the DC50 was 10 to 25 nM.
For the compound `CCn1c2c(c3ccc(N4CCN(CC5CCN(c6ccc(C(=O)N[C@H]7C(C)(C)[C@H](Oc8ccc(C#N)c(Cl)c8)C7(C)C)cn6)CC5)CC4)cc31)C(=O)N(C1CCC(=O)NC1=O)C2=O` (stereo partly shown) [Compound 6], the DC50 under setting [1] is 25 to 100 nM.
Turning to `Cn1c2c(c3cc(N4CCN(CC5CCN(c6ccc(C(=O)N[C@H]7CC[C@@H](Oc8ccc(C#N)c(Cl)c8)CC7)nn6)CC5)CC4)ccc31)C(=O)N(C1CCC(=O)NC1=O)C2=O` (stereo partly shown) [Compound 42], under setting [2], the DC50 fell in the range of 25 to 100 nM.
Turning to `CCn1c2c(c3ccc(N4CCN(CC5CCN(c6ncc(C(=O)N[C@H]7CC[C@H](Oc8ccc(C#N)c(Cl)c8)CC7)cn6)CC5)CC4)cc31)C(=O)N(C1CCC(=O)NC1=O)C2=O` (stereo partly shown) [Compound 25], the DC50 under setting [1] was 10 to 25 nM.
Turning to `CCn1c2c(c3ccc(C4CCN(CC5CN(c6ccc(C(=O)N[C@H]7CC[C@H](Oc8ccc(C#N)c(Cl)c8)CC7)nn6)C5)CC4)cc31)C(=O)N(C1CCC(=O)NC1=O)C2=O` (stereo partly shown) [Compound 10], the DC50 under setting [1] is below 10 nM.
In the case of `Cn1c2c(c3ccc(N4CCN(CC5CCN(c6ccc(C(=O)N[C@H]7C(C)(C)[C@@H](Oc8ccc(C#N)c(Cl)c8)C7(C)C)cn6)CC5)CC4)cc31)C(=O)N(C1CCC(=O)NC1=O)C2=O` (stereo partly shown) [Compound 28], the DC50 under setting [2] lay in the range of 25 to 100 nM.
Still for that read-out and setting: for `Cn1c2c(c3ccc(C4CCN(CC5CN(c6ccc(C(=O)N[C@H]7CC[C@H](Oc8ccc(C#N)c(Cl)c8)CC7)nn6)C5)CC4)cc31)C(=O)N(C1CCC(=O)NC1=O)C2=O` (stereo partly shown) [Compound 2] the value was below 10 nM.
`Cn1c2c(c3cc(N4CCN(CC5CN(c6ccc(C(=O)N[C@H]7CC[C@H](Oc8ccc(C#N)c(Cl)c8)CC7)nn6)C5)CC4)ccc31)C(=O)N(C1CCC(=O)NC1=O)C2=O` (stereo partly shown) [Compound 47]: under setting [2], the DC50 was 25 to 100 nM.
In the case of `CCn1c2c(c3ccc(N4CCN(CC5CCN(c6ccc(C(=O)N[C@H]7CC[C@H](Oc8ccc(C#N)c(Cl)c8)CC7)cn6)CC5)CC4)cc31)C(=O)N(C1CCC(=O)NC1=O)C2=O` (stereo partly shown) [Compound 4], the DC50 under setting [1] fell in the range of 25 to 100 nM.
With `CCn1c2c(c3ccc(C4CCN(CC5CCN(c6ccc(C(=O)N[C@H]7CC[C@@H](Oc8ccc(C#N)c(Cl)c8)CC7)nn6)CC5)CC4)cc31)C(=O)N(C1CCC(=O)NC1=O)C2=O` (stereo partly shown) [Compound 12], the DC50 under setting [1] lay in the range of 10 to 25 nM.
For the compound `CCn1c2c(c3ccc(N4CCC5(CC4)CN(CC4CCN(c6ccc(C(=O)N[C@H]7CC[C@H](Oc8ccc(C#N)c(Cl)c8)CC7)nn6)CC4)C5)cc31)C(=O)N(C1CCC(=O)NC1=O)C2=O` (stereo partly shown) [Compound 51], the DC50 under setting [1] is below 10 nM.
For `CCn1c2c(c3ccc(N4CCN(CC5CCN(c6ccc(C(=O)N[C@H]7CC[C@@H](Oc8ccc(C#N)c(Cl)c8)CC7)nn6)CC5)CC4)cc31)C(=O)N([C@H]1CCC(=O)NC1=O)C2=O` [Compound 39], the DC50 under setting [1] fell in the range of 10 to 25 nM.
As to `Cn1c2c(c3ccc(C4CCN(CC5CCN(c6ccc(C(=O)N[C@H]7CC[C@H](Oc8ccc(C#N)c(Cl)c8)CC7)nn6)C5)CC4)cc31)C(=O)N(C1CCC(=O)NC1=O)C2=O` (stereo partly shown) [Compound 34], the DC50 under setting [2] fell in the range of 10 to 25 nM.
With `CCn1c2c(c3ccc(N4CCN(CC5CCN(c6ccc(C(=O)N[C@H]7CC[C@H](Oc8ccc(C#N)c(Cl)c8)CC7)nn6)C5)CC4)cc31)C(=O)N(C1CCC(=O)NC1=O)C2=O` (stereo partly shown) [Compound 17], the DC50 under setting [1] was 10 to 25 nM.
In the case of `CCn1c2c(c3ccc(N4CCC(CN5CCC(c6ccc(C(=O)N[C@H]7CC[C@H](Oc8ccc(C#N)c(Cl)c8)CC7)nn6)CC5)CC4)cc31)C(=O)N(C1CCC(=O)NC1=O)C2=O` (stereo partly shown) [Compound 40], under setting [1], the DC50 fell in the range of 10 to 25 nM.
With `CCn1c2c(c3ccc(C4=CCN(CC5CCN(c6ccc(C(=O)N[C@H]7CC[C@H](Oc8ccc(C#N)c(Cl)c8)CC7)nn6)CC5)CC4)cc31)C(=O)N(C1CCC(=O)NC1=O)C2=O` (stereo partly shown) [Compound 48], the DC50 under setting [1] lay within 10 to 25 nM.
In the case of `CCn1c2c(c3ccc(N4CCN(CC5CCN(c6ccc(C(=O)N[C@H]7C(C)(C)[C@@H](Oc8ccc(C#N)c(Cl)c8)C7(C)C)cc6)CC5)CC4)cc31)C(=O)N(C1CCC(=O)NC1=O)C2=O` (stereo partly shown) [Compound 16], under setting [1], the DC50 is above 100 nM.
On the same count and under the same terms, the same measure for `CCn1c2c(c3ccc(C4CCN(CC5CCN(c6ccc(C(=O)N[C@H]7C(C)(C)[C@H](Oc8ccc(C#N)c(Cl)c8)C7(C)C)cc6)CC5)CC4)cc31)C(=O)N(C1CCC(=O)NC1=O)C2=O` (stereo partly shown) [Compound 24]: 25 to 100 nM.
As for `Cn1c2c(c3cc(N4CCN(CC5CCN(c6ccc(C(=O)N[C@H]7CC[C@H](Oc8ccc(C#N)c(Cl)c8)CC7)nn6)CC5)CC4)ccc31)C(=O)N(C1CCC(=O)NC1=O)C2=O` (stereo partly shown) [Compound 41], the DC50 under setting [2] is above 100 nM.
In the case of `Cn1c2c(c3ccc(N4CCN(CC5CN(c6ccc(C(=O)N[C@H]7CC[C@H](Oc8ccc(C#N)c(Cl)c8)CC7)nn6)C5)CC4)cc31)C(=O)N(C1CCC(=O)NC1=O)C2=O` (stereo partly shown) [Compound 1], the DC50 under setting [2] is below 10 nM.
For the compound `CCn1c2c(c3ccc(N4CCN(CC5CCN(c6ncc(C(=O)N[C@H]7CC[C@@H](Oc8ccc(C#N)c(Cl)c8)CC7)cn6)CC5)CC4)cc31)C(=O)N(C1CCC(=O)NC1=O)C2=O` (stereo partly shown) [Compound 26], the DC50 under setting [1] is above 100 nM.
As for `Cn1c2c(c3ccc(C4CCN(CC5CCN(c6ccc(C(=O)N[C@H]7CC[C@@H](Oc8ccc(C#N)c(Cl)c8)CC7)nn6)CC5)CC4)cc31)C(=O)N(C1CCC(=O)NC1=O)C2=O` (stereo partly shown) [Compound 30], under setting [2], the DC50 is below 10 nM.
Consider `CCn1c2c(c3ccc(N4CCN(CC5CCN(c6ccc(C(=O)N[C@H]7CC[C@@H](Oc8ccc(C#N)c(Cl)c8)CC7)cn6)CC5)CC4)cc31)C(=O)N(C1CCC(=O)NC1=O)C2=O` (stereo partly shown) [Compound 5], for which the DC50 under setting [1] fell in the range of 25 to 100 nM.
Turning to `Cn1c2c(c3ccc(N4CCN(CC5CCN(c6ncc(C(=O)N[C@H]7CC[C@H](Oc8ccc(C#N)c(Cl)c8)CC7)cn6)CC5)CC4)cc31)C(=O)N(C1CCC(=O)NC1=O)C2=O` (stereo partly shown) [Compound 35], under setting [2], the DC50 lay in the range of 10 to 25 nM.
As for `CCn1c2c(c3ccc(N4CCN(CC5CCN(c6ccc(C(=O)N[C@H]7C(C)(C)[C@@H](Oc8ccc(C#N)c(Cl)c8)C7(C)C)cn6)CC5)CC4)cc31)C(=O)N(C1CCC(=O)NC1=O)C2=O` (stereo partly shown) [Compound 7], under setting [1], the DC50 is 25 to 100 nM.
As for `CCn1c2c(c3ccc(N4CCN(CC5CCN(c6ccc(C(=O)N[C@H]7C(C)(C)[C@H](Oc8ccc(C#N)c(Cl)c8)C7(C)C)cc6)CC5)CC4)cc31)C(=O)N(C1CCC(=O)NC1=O)C2=O` (stereo partly shown) [Compound 15], under setting [1], the DC50 is 25 to 100 nM.
In the case of `CCn1c2c(c3ccc(N4CCN(CC5CCN(c6ccc(C(=O)N[C@H]7C(C)(C)[C@@H](Oc8ccc(C#N)c(Cl)c8)C7(C)C)nn6)CC5)CC4)cc31)C(=O)N(C1CCC(=O)NC1=O)C2=O` (stereo partly shown) [Compound 9], under setting [1], the DC50 was in the range of 25 to 100 nM.
